Laboratory results from patent US9255072B2, “Pyrazole compounds and thiazole compounds as protein kinases inhibitors” (National Health Rsearch Institutes, priority 2011, dated 2016).
Where two headings read alike, the source gives them in different places.

Assays:
VEGFR2 = target: T1, VEGFR2 (Homo sapiens, UniProt P35968); assay: VEGFR2 Kinase-Glo kinase assay; type: biochemical
T1 construct: GST-VEGFR2 (residues V789-V1356); GST (N); made in house; host or cells: Sf9 insect cells
Method: (§1) The recombinant GST-VEGFR1 (residues R781-I1338) or GST-VEGFR2 (residues V789-V1356) containing kinase domain were expressed in Sf9 insect cells. The kinase assay were carried out in 96-well plates with tested compound in a final volume of 50 μl reaction at 30° C. for 120 minutes with following components: 25 mM HEPES pH 7.4, 10 mM MgCl2, 4 mM MnCl2, 0.5 mM Na3VO4, 2 mM DTT, 0.02% Triton X100, 0.01% BSA, 1 μM ATP, 2 μM polyGlu4:Tyr peptide, 50˜100 ng recombinant VEGFR1 or VEGFR2. Following incubation, 50 μl Kinase-Glo Plus Reagent (Promega, Madison, Wis., USA) was added to each well and the mixture was incubated at 25° C. for 20 min. A 70-μL aliquot of each reaction mixture was transferred to a black microtiter plate and the luminescence was measured on Wallac Vector 1420 multilabel counter (PerkinElmer, Shelton, Conn., USA).

MOLM-13 cell = assay: MTS cell viability assay; type: cell-based; details: Homo sapiens, MOLM-13, 72 h, table of representative values
Excerpt: The leukemias cell lines MOLM-13, MV4:11, RSV4:11, MOLT-4, U937, and K562 were purchased from American Type Culture Collection (ATCC, Manassas, Va., USA). The non-leukemias cell lines HCC827, H1975, NCIH460, A431, Huh7, SF268, MCF-7, HCT-116, and normal human fetal fibroblast cell line Detriot 551 were purchased from American Type Culture Collection (ATCC, Manassas, Va., USA). All leukemias cell lines and HCC827, H1975, NCIH460, A431 were maintained in RPMI 1640 medium supplemented with 10% fetal bovine serum (FBS), 10 U/ml penicillin, and 10 µg/ml streptomycin at 37° C. and 5% CO2. The cell lines Huh7, SF268, MCF-7, and Detroit 551 were cultured in DMEM medium supplemented with 10% FBS, 0.01% nonessential amino acids, 10 U/ml penicillin, and 10 µg/ml streptomycin. HCT-116 were cultured in McCoy's 5A medium supplemented with 10% FBS, 0.01% nonessential amino acids, 10 U/ml penicillin, and 10 µg/ml streptomycin. To determine cell viability after drug treatment, assays were performed by seeding 10,000 cells (leukemias cell lines) or 2,500 cells (non-leukemias cell lines) per well in a 96-well culture plate. After 16 h, cells were then treated with vehicle or various concentrations of compound in medium for 72 h. Viable cells were quantitated using the MTS method (Promega, Madison, Wis., USA) according to the manufacturer's recommended protocol. The results were determined by measuring the absorbance at 490 nm using a plate reader (Victor2; PerkinElmer, Shelton, Conn., USA).

Aurora A = target: T2, Aurora A (Homo sapiens, UniProt O14965); assay: Aurora kinase A Kinase-Glo kinase assay; type: biochemical
T2 construct: GST-Aurora A (residues S123-S401); GST (N); made in house; host or cells: Sf9 insect cells
T2 sequence (O14965 123-401): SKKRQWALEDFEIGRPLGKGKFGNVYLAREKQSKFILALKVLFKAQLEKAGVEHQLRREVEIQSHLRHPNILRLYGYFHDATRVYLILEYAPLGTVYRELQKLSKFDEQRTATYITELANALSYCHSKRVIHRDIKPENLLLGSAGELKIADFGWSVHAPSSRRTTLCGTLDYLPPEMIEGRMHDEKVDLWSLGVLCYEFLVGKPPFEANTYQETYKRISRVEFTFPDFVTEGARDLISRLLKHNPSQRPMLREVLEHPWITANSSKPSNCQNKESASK
Method: The recombinant GST-Aurora A (residues S123-S401) containing kinase domain were expressed in Sf9 insect cells. The kinase assay were carried out in 96-well plates with tested compound in a final volume of 50 μl reaction at 37° C. for 90 minutes with following components: 50 mM Tris-HCl pH 7.4, 10 mM NaCl, 10 mM MgCl2, 0.01% BSA, 5 μM ATP, 1 mM DTT and 15 μM tetra(LRRASLG) peptide, and 150 ng recombinant Aurora A. Following incubation, 50 μl Kinase-Glo Plus Reagent (Promega, Madison, Wis., USA) was added to each well and the mixture was incubated at 25° C. for 20 min. A 70-μL aliquot of each reaction mixture was transferred to a black microtiter plate and the luminescence was measured on Wallac Vector 1420 multilabel counter (PerkinElmer, Shelton, Conn., USA).

VEGFR1 = target: T3, VEGFR1 (Homo sapiens, UniProt P17948); assay: VEGFR1 Kinase-Glo kinase assay; type: biochemical
T3 construct: GST-VEGFR1 (residues R781-I1338); GST (N); made in house; host or cells: Sf9 insect cells
T3 sequence (P17948 781-1338): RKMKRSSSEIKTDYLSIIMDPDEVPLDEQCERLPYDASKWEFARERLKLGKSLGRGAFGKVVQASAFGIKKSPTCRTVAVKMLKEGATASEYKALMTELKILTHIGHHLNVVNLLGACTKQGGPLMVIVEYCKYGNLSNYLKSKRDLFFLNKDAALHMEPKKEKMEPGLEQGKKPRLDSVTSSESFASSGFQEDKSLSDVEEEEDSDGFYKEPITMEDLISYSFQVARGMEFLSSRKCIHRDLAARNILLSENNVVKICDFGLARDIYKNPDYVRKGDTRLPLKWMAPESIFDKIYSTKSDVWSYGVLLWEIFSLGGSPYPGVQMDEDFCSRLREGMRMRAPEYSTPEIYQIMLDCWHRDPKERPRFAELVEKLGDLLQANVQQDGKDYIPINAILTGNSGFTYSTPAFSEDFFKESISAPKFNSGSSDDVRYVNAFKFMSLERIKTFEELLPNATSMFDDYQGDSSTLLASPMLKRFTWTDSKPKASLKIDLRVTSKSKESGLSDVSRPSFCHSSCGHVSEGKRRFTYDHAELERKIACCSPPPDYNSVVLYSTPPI
Method: as §1

wt-FLT3 = target: T4, wt-FLT3 (Homo sapiens, UniProt P36888); assay: FLT3 WT Kinase-Glo assay; type: biochemical; details: table of representative values; read-out: IC50 (nM) wt-FLT3
T4 construct: FLT3 kinase catalytic domain (residues Y567˜S993); made in house; host or cells: Sf9 insect cells (baculovirus, pBac-PAK8-GST-FLT3-KD plasmid)
T4 sequence (P36888 567-993): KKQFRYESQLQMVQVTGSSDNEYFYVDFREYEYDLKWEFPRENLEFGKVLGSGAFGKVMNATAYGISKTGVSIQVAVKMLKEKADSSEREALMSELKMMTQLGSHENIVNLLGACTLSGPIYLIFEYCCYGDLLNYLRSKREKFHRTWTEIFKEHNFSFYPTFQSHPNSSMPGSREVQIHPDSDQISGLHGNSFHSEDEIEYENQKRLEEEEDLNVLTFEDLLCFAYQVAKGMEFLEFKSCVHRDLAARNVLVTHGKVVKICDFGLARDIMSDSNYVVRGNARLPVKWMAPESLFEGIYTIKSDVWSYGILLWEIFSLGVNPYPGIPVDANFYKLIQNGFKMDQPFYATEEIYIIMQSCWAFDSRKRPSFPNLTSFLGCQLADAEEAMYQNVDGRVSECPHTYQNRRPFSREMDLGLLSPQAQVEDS
Method: GST-FLT3-KD^WT containing the FLT3 kinase catalytic domain (residues Y567˜S993) were expressed in Sf9 insect cells transfected the baculovirus containing pBac-PAK8-GST-FLT3-KD plasmid. […] Following incubation, 50 μl Kinase-Glo Plus Reagent (Promega, Madison, Wis., USA) was added to each well and the mixture was incubated at 25° C. for 20 min. A 70-μL aliquot of each reaction mixture was transferred to a black microtiter plate and the luminescence was measured on Wallac Vector 1420 multilabel counter (PerkinElmer, Shelton, Conn., USA).

[1] = VEGFR2 assay, 1 μM ATP, bound in μM, read-out: IC50
[2] = table of representative values, read-out: IC50 (nM) VEGFR2
[3] = Aurora A assay, 5 μM ATP, bound in nM, read-out: IC50
[4] = Aurora A assay, 5 μM ATP, bound in μM, read-out: IC50
[5] = table of representative values, read-out: IC50 (nM) Aurora A
[6] = VEGFR1 assay, 1 μM ATP, bound in μM, read-out: IC50
[7] = table of representative values, read-out: IC50 (nM) VEGFR1
[8] = VEGFR2 assay, 1 μM ATP, ranges in nM, read-out: IC50
[9] = VEGFR1 assay, 1 μM ATP, bound in nM, read-out: IC50

T1 sequence (P35968 789-1356): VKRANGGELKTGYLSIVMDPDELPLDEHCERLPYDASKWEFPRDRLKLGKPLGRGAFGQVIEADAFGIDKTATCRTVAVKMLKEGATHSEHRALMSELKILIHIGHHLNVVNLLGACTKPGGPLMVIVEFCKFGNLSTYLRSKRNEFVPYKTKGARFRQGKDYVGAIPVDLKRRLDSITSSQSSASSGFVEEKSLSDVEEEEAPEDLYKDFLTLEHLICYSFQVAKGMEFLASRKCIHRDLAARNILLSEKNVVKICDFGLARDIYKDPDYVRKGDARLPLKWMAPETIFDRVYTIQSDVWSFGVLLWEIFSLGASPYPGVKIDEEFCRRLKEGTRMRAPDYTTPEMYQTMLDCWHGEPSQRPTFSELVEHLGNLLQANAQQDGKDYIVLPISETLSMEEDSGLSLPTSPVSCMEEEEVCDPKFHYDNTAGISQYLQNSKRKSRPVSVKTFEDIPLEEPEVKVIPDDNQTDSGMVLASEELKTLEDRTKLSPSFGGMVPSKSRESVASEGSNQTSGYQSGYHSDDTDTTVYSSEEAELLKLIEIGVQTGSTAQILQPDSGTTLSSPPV

Structure (SMILES): CCc1cc(NC(=O)Nc2ccc(-c3cc(NC(=O)c4ccc(OCCN5CCOCC5)cc4)[nH]n3)cc2C)no1 [Compound 46b, N1-3-[4-([(5-ethyl-3-isoxazolyl)amino]carbonylamino)-3-methylphenyl]-1H-5-pyrazolyl-4-(2-morpholinoethoxy)benzamide]
- IC50 (VEGFR2; [1]): < 1 µM
- IC50 (VEGFR2; [2]): 0.151 µM
- GI50 (MOLM-13 cell): 1 nM
- IC50 (Aurora A; [3]): < 200 nM
- IC50 (Aurora A; [4]): < 1000 nM
- IC50 (Aurora A; [5]): 22 nM
- IC50 (VEGFR1; [6]): < 1 µM
- IC50 (VEGFR1; [7]): 0.29 µM
- IC50 (wt-FLT3): 27 nM

Structure (SMILES): Cc1cc(-c2cc(NC(=O)c3ccc(OCCN4CCOCC4)cc3)[nH]n2)ccc1NC(=O)Nc1cc(C2CC2)on1 [Compound 46c, N1-3-[4-([(5-cyclopropyl-3-isoxazolyl)amino]carbonylamino)-3-methylphenyl]-1H-5-pyrazolyl-4-(2-morpholinoethoxy)benzamide]
- IC50 (VEGFR2; [1]): < 1 µM
- IC50 (VEGFR2; [8]): 0.001 to 0.055 µM
- IC50 (VEGFR2; [2]): 0.037 µM
- GI50 (MOLM-13 cell): 2 nM
- IC50 (Aurora A; [3]): < 200 nM
- IC50 (Aurora A; [4]): < 1000 nM
- IC50 (Aurora A; [5]): 41 nM
- IC50 (VEGFR1; [9]): < 0.1 µM
- IC50 (VEGFR1; [6]): < 1 µM
- IC50 (VEGFR1; [7]): 0.053 µM
- IC50 (wt-FLT3): 38 nM

Structure (SMILES): O=C(NCc1ccc(-c2cc(NC(=O)c3ccc(OCCN4CCOCC4)cc3)[nH]n2)cc1)Nc1cc(C2CC2)on1 [Compound 59d, N1-(3-4-[([(5-cyclopropyl-3-isoxazolyl)amino]carbonylamino)methyl]phenyl-1H-5-pyrazolyl)-4-(2-morpholinoethoxy)benzamide]
- IC50 (VEGFR2; [1]): < 1 µM
- IC50 (VEGFR2; [8]): 0.001 to 0.055 µM
- IC50 (VEGFR2; [2]): 0.045 µM
- GI50 (MOLM-13 cell): 6 nM
- IC50 (VEGFR1; [6]): < 1 µM
- IC50 (VEGFR1; [7]): 0.342 µM
- IC50 (wt-FLT3): 21 nM

Structure (SMILES): CCc1cc(NC(=O)NCc2ccc(-c3cc(NC(=O)c4ccc(CN5CCN(C)CC5)cc4)[nH]n3)cc2)no1 [Compound 62b, N1-(3-4-[([(5-ethyl-3-isoxazolyl)amino]carbonylamino)methyl]phenyl-1H-5-pyrazolyl)-4-[(4-methylpiperazino)methyl]benzamide]
- IC50 (VEGFR2; [1]): < 1 µM
- IC50 (VEGFR2; [8]): 0.001 to 0.055 µM
- IC50 (VEGFR2; [2]): 0.037 µM
- GI50 (MOLM-13 cell): 2 nM
- IC50 (Aurora A; [5]): > 1000 nM
- IC50 (VEGFR1; [9]): < 0.1 µM
- IC50 (VEGFR1; [6]): < 1 µM
- IC50 (VEGFR1; [7]): 0.029 µM
- IC50 (wt-FLT3): 26 nM

Structure (SMILES): CN1CCN(Cc2ccc(C(=O)Nc3cc(-c4ccc(CNC(=O)Nc5cc(C6CC6)on5)cc4)n[nH]3)cc2)CC1 [Compound 62d, N1-(3-4-[([(5-cyclopropyl-3-isoxazolyl)amino]carbonylamino)methyl]phenyl-1H-5-pyrazolyl)-4-[(4-methylpiperazino)methyl]benzamide]
- IC50 (VEGFR2; [1]): < 1 µM
- IC50 (VEGFR2; [8]): 0.001 to 0.055 µM
- IC50 (VEGFR2; [2]): 0.023 µM
- GI50 (MOLM-13 cell): 3 nM
- IC50 (VEGFR1; [6]): < 1 µM
- IC50 (VEGFR1; [7]): 0.18 µM
- IC50 (wt-FLT3): 38 nM
